Experimental data reported in article PMC6469685 (Cell, 2018).

Key:
Assay in all cases: NBD fluorescence titration
Type in all cases: binding
[1] = biological target: T1, StARD1 (StAR; HMBP-3C-STAR.66–285) (Homo sapiens, UniProt P49675); conditions: labelled compound
T1 sequence (P49675 66-285): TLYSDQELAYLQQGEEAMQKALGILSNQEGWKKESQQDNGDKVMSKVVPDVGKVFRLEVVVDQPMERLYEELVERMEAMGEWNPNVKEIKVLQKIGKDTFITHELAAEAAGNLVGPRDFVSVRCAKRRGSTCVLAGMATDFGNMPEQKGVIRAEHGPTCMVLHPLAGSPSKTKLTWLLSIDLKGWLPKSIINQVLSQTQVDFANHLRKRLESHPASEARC

[2] = biological target: T2, Aster-A261–576 (ASTER domain of Aster-A) (Mus musculus, UniProt Q8VEF1)
T2 sequence (Q8VEF1 261-576): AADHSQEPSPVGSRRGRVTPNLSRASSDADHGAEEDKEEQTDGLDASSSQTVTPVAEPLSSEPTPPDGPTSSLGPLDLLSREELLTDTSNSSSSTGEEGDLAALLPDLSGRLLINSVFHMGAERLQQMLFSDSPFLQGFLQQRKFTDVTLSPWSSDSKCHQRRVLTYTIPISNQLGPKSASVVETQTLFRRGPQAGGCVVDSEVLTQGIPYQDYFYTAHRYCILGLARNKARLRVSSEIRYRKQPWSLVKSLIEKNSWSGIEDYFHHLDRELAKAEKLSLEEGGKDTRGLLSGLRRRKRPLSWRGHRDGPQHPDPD

[3] = biological target: Aster-C206–528 (ASTER domain of Aster-C) (Mus musculus, UniProt Q8CI52)
Aster-C206–528 (ASTER domain of Aster-C), sequence (Q8CI52 206-528): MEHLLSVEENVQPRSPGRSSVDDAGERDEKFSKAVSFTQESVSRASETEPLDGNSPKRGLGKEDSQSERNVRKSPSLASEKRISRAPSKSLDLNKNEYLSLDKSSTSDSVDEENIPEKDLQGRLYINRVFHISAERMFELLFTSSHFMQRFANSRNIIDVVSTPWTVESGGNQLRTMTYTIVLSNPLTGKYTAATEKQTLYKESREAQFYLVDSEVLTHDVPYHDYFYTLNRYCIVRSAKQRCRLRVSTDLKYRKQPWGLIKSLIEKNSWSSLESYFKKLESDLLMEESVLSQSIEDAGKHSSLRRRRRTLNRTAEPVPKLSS

What does the source list for `C[C@H](CNc1ccc([N+](=O)[O-])c2nonc12)[C@H]1CC[C@H]2[C@@H]3CC=C4C[C@@H](O)CC[C@]4(C)[C@H]3CC[C@]12C` [22-NBD-cholesterol]?
Kd [1]: Comparison of NBD-cholesterol binding to Aster-A, Aster-B and StarD1; Kd [2]: < 100 nM; Kd [3]: < 100 nM
